Experimental data reported in PMC8469912, “Naproxen Based 1,3,4-Oxadiazole Derivatives as EGFR Inhibitors: Design, Synthesis, Anticancer, and Computational Studies” (Pharmaceuticals, 2021).
≈ marks a conversion by molar mass, not a printed value.

Assays:
HepG2 (Hepatocellular) = assay: Antiproliferative activity, sulphorhodamine B (SRB) assay, HepG2; assay type: cell-based; settings: Homo sapiens, HepG2, cytotoxicity, HepG2 liver cancer cells, mean of three independent experiments
Procedure: (§1) The cytotoxicity of the new isolated compounds was evaluated against MCF-7 (breast cells), HepG2 (Hepatocellular) and HCT-116 (colorectal cells) human cancer cells using sulphorhodamine B assay (SRB). This assay was performed as previously published.
(§2) The antiproliferative activity of the target compounds was assessed on three cancer lines, MCF-7, HepG2 and HCT-116 cells using sulforhodamine assay. […].

EGFR = EGFR (Homo sapiens, UniProt P00533); assay: In vitro EGFR kinase inhibitory activity (ELISA, EGFR Erb B1 kinase kit)
Procedure: Briefly, solutions of kinase/peptide and ATP were prepared prior to use. […] Then, 5 mL of this prepared solution was added into 96 well plates, incubated for 1 h and determined by an ELISA Reader (Perkin Elmer, Waltham, MA, USA). Each experiment was repeated three times and IC50 represented as mean ± S.E, was calculated using Graph Pad Prism 5.

[1] = test system: HCT-116 (colorectal cells); assay: Antiproliferative activity, sulphorhodamine B (SRB) assay, HCT-116; assay type: cell-based; settings: Homo sapiens, HCT-116, cytotoxicity, HCT-116 colorectal cancer cells, mean of three independent experiments
Procedure: as §1, §2

MCF-7 (breast cells) = assay: Antiproliferative activity, sulphorhodamine B (SRB) assay, MCF-7; assay type: cell-based; settings: Homo sapiens, MCF7, cytotoxicity, MCF-7 breast cancer cells, mean of three independent experiments
Procedure: as §1, §2

MCF-7 = assay: Apoptosis, acridine orange/ethidium bromide staining, MCF-7; assay type: cell-based, human; settings: MCF-7, AO/EtBr dual staining, 48 h, fluorescent microscope
Procedure: (§3) AO and EtBr are DNA binding dyes. They have been used for detection of the morphological features of apoptotic and necrotic cells. The stainings were performed according the protocol as previously published.
(§4) The MCF-7, HepG2 and HCT 116 cancer cells were categorized by AO/EtBr dual staining. The different colors of the cells indicate different stages of apoptosis. […] and examined under a fluorescent microscope. Regularly stained green with normal, round, intact nuclei and cytoplasm indicates the viability of the normal cell (control).

HepG2 = assay: Apoptosis, acridine orange/ethidium bromide staining, HepG2; assay type: cell-based, human; settings: HepG2, AO/EtBr dual staining, 48 h, fluorescent microscope
Procedure: as §3, §4

HCT 116 = assay: Apoptosis, acridine orange/ethidium bromide staining, HCT 116; assay type: cell-based, human; settings: HCT 116, AO/EtBr dual staining, 48 h, fluorescent microscope
Procedure: as §3, §4

EGFR, sequence (P00533 25-1210): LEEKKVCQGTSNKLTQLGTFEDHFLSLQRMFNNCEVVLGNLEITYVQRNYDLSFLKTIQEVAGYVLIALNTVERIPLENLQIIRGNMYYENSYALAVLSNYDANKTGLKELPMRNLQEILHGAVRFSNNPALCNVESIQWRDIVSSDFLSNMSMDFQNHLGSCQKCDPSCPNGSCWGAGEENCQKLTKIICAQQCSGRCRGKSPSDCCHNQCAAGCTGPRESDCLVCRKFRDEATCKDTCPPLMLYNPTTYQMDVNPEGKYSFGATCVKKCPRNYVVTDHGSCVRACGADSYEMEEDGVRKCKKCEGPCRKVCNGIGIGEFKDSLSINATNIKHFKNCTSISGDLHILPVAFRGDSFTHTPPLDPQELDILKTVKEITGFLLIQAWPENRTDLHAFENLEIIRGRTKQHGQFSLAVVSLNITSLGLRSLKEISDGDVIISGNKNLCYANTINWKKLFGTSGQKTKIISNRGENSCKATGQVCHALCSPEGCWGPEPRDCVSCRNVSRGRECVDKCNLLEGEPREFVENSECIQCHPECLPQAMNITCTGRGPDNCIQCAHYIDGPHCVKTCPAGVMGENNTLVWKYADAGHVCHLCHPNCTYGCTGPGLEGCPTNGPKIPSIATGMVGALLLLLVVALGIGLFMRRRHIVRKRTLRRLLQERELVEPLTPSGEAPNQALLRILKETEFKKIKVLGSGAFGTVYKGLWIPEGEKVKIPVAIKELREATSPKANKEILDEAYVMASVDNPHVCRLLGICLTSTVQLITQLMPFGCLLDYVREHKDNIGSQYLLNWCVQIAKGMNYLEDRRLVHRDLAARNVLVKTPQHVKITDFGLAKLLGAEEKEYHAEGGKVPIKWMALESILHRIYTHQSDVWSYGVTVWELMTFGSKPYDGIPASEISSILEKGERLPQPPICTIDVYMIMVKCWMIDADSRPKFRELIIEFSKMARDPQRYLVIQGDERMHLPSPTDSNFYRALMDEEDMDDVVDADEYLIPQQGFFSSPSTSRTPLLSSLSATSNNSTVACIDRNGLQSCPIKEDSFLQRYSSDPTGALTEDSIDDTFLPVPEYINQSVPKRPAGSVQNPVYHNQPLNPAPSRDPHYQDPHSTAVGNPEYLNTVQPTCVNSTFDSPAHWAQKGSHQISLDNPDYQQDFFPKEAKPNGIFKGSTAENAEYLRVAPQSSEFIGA

IC50 (EGFR) [nM]	melting point [°C]	SMILES	IC50 (HepG2 (Hepatocellular)) [µg/mL]	IC50 [1] [µg/mL]	IC50 (MCF-7 (breast cells)) [µg/mL]	other results
670 ± 330		COc1ccc2cc([C@H](C)c3nnc(SCc4cn(-c5ccccc5Cl)nn4)o3)ccc2c1 [Compound 10]	3.53 (≈ 7.39 µM)	33.9 (≈ 70.9 µM)	5.05 (≈ 10.6 µM)	Early apoptosis (cell death) (MCF-7): significant rate of cell death in early apoptosis; Early apoptosis (cell death) (HepG2): significant rate of cell death in early apoptosis; Early apoptosis (cell death) (HCT 116): significant rate of cell death in early apoptosis
5120 ± 210	160 to 161	COc1ccc2cc([C@H](C)c3nnc(SCc4cn(-c5ccc(Br)cc5)nn4)o3)ccc2c1 [Compound 14]	7.63 (≈ 14.6 µM)	86.1 (≈ 165 µM)	7.5 (≈ 14.4 µM)	
2270 ± 170		COc1ccc2cc([C@H](C)c3nnc(SCc4cn(-c5cccc(C(=O)O)c5)nn4)o3)ccc2c1 [Compound 16]	10.7 (≈ 21.9 µM)	8.36 (≈ 17.1 µM)	10.4 (≈ 21.4 µM)	Late apoptosis (MCF-7): observed at a high rate; Necrosis (MCF-7): high percentage of necrosis; Late apoptosis (HepG2): observed at a high rate; Necrosis (HepG2): high percentage of necrosis
	220 to 221	COc1ccc2cc([C@H](C)c3nnc(SCC(=O)Nc4ccc(F)cc4)o3)ccc2c1 [Compound 19]				
820 ± 280		COc1ccc2cc([C@H](C)c3nnc(SCC(=O)Nc4cccc(Cl)c4)o3)ccc2c1 [Compound 21]	7 (≈ 15.4 µM)	1.24 (≈ 2.73 µM)	25.9 (≈ 57.1 µM)	
	129 to 130	COc1ccc2cc([C@H](C)c3nnc(SCC(=O)Nc4cccc(Br)c4)o3)ccc2c1 [Compound 22]	> 100		> 100	
1080 ± 310		COc1ccc2cc([C@H](C)c3nnc(SCC(=O)Nc4ccccc4C)o3)ccc2c1 [Compound 24]	4.88 (≈ 11.3 µM)	29.3 (≈ 67.7 µM)	8.15 (≈ 18.8 µM)	

More lines, now with the values behind:

SMILES	IC50 (EGFR) [nM]	melting point [°C]	IC50 (HepG2 (Hepatocellular)) [µg/mL]	IC50 [1] [µg/mL]	IC50 (MCF-7 (breast cells)) [µg/mL]	other results
COc1ccc2cc([C@H](C)c3nnc(SCc4cn(-c5ccc(F)cc5)nn4)o3)ccc2c1 [Compound 8]	7310 ± 250	99 to 100	25.5 (≈ 55.2 µM)	15.7 (≈ 33.9 µM)	7.38 (≈ 16 µM)	
COc1ccc2cc([C@H](C)c3nnc(SCc4cn(-c5ccc(F)cc5F)nn4)o3)ccc2c1 [Compound 9]	710 ± 170		4.52 (≈ 9.43 µM)	7.46 (≈ 15.6 µM)	6.47 (≈ 13.5 µM)	Early apoptosis (cell death) (MCF-7): significant rate of cell death in early apoptosis; Necrosis (MCF-7): does not cause death of the necrosis pathway; Early apoptosis (cell death) (HepG2): significant rate of cell death in early apoptosis; Necrosis (HepG2): does not cause death of the necrosis pathway; Early apoptosis (cell death) (HCT 116): significant rate of cell death in early apoptosis; Necrosis (HCT 116): does not cause death of the necrosis pathway
COc1ccc2cc([C@H](C)c3nnc(SCc4cn(-c5cccc(Cl)c5)nn4)o3)ccc2c1 [Compound 11]			37.9 (≈ 79.3 µM)	83.9 (≈ 176 µM)	60.5 (≈ 126 µM)	
COc1ccc2cc([C@H](C)c3nnc(SCc4cn(-c5ccc(Cl)cc5Cl)nn4)o3)ccc2c1 [Compound 12]		102 to 103	26.4 (≈ 51.5 µM)	28.1 (≈ 54.9 µM)	45.7 (≈ 89.2 µM)	
COc1ccc2cc([C@H](C)c3nnc(SCc4cn(-c5cccc(Br)c5)nn4)o3)ccc2c1 [Compound 13]	3420 ± 110		7.07 (≈ 13.5 µM)	29.3 (≈ 56 µM)	15.8 (≈ 30.3 µM)	
COc1ccc2cc([C@H](C)c3nnc(SCc4cn(-c5ccccc5O)nn4)o3)ccc2c1 [Compound 15, 2-(4-((5-((S)-1-(2-methoxynaphthalen-6-yl)ethyl)-1,3,4-oxadiazol-2-ylthio)methyl)-1H-1,2,3-triazol-1-yl)phenol]	410 ± 120		1.63 (≈ 3.55 µM)	29.1 (≈ 63.3 µM)	2.13 (≈ 4.64 µM)	Early apoptosis (cell death) (HepG2): percentage of cell death decreased; Early apoptosis (cell death) (HCT 116): percentage of cell death decreased; Late apoptosis (HCT 116): induces more late apoptosis; Necrosis (HCT 116): high percentage of necrosis
COc1ccc2cc([C@H](C)c3nnc(SCC(=O)Nc4ccc(F)cc4F)o3)ccc2c1 [Compound 20]		102 to 103	31.3 (≈ 68.8 µM)	73.4 (≈ 161 µM)	32.6 (≈ 71.7 µM)	
COc1ccc2cc([C@H](C)c3nnc(SCC(=O)Nc4ccc(Br)cc4)o3)ccc2c1 [Compound 23]		148 to 149	15 (≈ 30 µM)	35.1 (≈ 70.5 µM)	25.6 (≈ 51.3 µM)	
COc1ccc2cc([C@H](C)c3nnc(SCC(=O)Nc4ccccc4C(=O)O)o3)ccc2c1 [Compound 25]		130 to 131	28 (≈ 60.5 µM)	29.2 (≈ 63 µM)	29.8 (≈ 64.3 µM)	
COc1ccc2cc([C@H](C)c3nnc(SCC(=O)N4CCOCC4)o3)ccc2c1 [Compound 26]			23.6 (≈ 57.2 µM)	11.1 (≈ 26.8 µM)	22.3 (≈ 53.9 µM)	
COc1cccc2c1C(=O)c1c(O)c3c(c(O)c1C2=O)C[C@@](O)(C(=O)CO)C[C@@H]3O[C@H]1C[C@H](N)[C@H](O)[C@H](C)O1 [Doxorubicin, reference compound]			1.62 (≈ 2.98 µM)	2.11 (≈ 3.88 µM)	1.41 (≈ 2.59 µM)	
